Test results published in publication PMC10669046, “Probing the Proton-Gated ASIC Channels Using Tetraalkylammonium Ions” (Biomolecules, 2023).

How the values were obtained:
ASIC2a = target: T1, ASIC2a (Rattus norvegicus, UniProt Q62962); assay: whole-cell patch clamp in transfected CHO cells; […], pH […], peak Idrug/Icontrol = […]; type: cell-based; details: pH 5, read-out: whole-cell patch clamp in transfected CHO cells, 5 mM, pH 5.0, peak Idrug/Icontr
T1 construct: gene Asic2
T1 sequence (Q62962 1-512): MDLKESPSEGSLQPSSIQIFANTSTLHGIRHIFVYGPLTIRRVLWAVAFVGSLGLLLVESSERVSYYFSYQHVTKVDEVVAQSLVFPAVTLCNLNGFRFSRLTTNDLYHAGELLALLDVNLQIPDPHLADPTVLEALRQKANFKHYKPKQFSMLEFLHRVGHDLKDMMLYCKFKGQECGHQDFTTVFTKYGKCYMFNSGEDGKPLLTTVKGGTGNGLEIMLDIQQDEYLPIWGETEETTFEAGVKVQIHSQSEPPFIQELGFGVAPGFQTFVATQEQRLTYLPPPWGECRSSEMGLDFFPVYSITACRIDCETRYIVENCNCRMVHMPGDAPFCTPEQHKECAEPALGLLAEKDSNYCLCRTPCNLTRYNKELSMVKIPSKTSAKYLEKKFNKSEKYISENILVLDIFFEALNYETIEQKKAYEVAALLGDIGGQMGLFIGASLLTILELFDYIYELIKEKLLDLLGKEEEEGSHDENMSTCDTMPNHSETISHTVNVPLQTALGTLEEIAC

ASIC1a [1] = target: T2, ASIC1a (Rattus norvegicus, UniProt P55926); assay: whole-cell patch clamp in transfected CHO cells; […], pH […], Idrug/Icontrol = […]; type: cell-based; details: pH 6.5, read-out: whole-cell patch clamp in transfected CHO cells, 5 mM, pH 6.5, Idrug/Icontrol =
T2 construct: gene Asic1
T2 sequence (P55926 1-526): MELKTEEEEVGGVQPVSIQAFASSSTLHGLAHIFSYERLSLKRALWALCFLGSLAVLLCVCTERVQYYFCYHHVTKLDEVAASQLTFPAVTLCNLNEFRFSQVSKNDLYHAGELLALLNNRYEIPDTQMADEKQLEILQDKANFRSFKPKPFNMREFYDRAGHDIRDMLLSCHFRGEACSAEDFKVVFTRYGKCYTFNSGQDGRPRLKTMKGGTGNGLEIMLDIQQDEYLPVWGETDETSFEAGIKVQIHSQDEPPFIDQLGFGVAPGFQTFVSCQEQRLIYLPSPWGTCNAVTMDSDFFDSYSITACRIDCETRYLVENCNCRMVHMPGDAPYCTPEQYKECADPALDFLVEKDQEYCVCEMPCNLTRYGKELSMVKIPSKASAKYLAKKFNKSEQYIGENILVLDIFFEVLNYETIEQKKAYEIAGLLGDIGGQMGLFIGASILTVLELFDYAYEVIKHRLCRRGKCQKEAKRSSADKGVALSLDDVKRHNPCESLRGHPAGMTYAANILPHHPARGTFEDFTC

ASIC3 = target: T3, ASIC3 (Rattus norvegicus, UniProt O35240); assay: cell-based; details: CHO, read-out: whole-cell patch clamp in transfected CHO cells; potentiation of the sustained c
T3 sequence (O35240 1-533): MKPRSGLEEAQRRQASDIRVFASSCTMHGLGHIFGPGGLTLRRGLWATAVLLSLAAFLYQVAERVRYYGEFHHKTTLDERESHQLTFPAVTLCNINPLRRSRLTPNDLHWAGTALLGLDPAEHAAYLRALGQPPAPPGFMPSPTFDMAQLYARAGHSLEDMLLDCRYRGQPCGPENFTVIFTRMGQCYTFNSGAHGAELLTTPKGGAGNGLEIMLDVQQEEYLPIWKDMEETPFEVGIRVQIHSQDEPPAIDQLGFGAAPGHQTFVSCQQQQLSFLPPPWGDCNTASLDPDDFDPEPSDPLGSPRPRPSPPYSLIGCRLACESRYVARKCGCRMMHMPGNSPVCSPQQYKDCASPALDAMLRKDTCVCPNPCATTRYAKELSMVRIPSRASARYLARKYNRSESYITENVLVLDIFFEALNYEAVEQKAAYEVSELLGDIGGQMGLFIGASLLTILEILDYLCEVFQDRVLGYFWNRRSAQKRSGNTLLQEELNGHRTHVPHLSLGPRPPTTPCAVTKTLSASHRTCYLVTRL

ASIC1a [2] = target: T2, ASIC1a; assay: cell-based; details: CHO, read-out: whole-cell patch clamp in transfected CHO cells; 10 mM, voltage-dependent inhibi

CCCCC[N+](CCCCC)(CCCCC)CCCCC [TPtA, tetrapentylammonium]
activity at 5000 µM (ASIC2a): 71 ± 18% | remaining activity at 5000 µM (ASIC1a [1]): 41 ± 6%

CCCC[N+](CCCC)(CCCC)CCCC [TBA, tetrabutylammonium]
activity at 1000 µM (ASIC3): 112 ± 8%

CC[N+](CC)(CC)CC [TEA, tetraethylammonium]
activity at 10000 µM (ASIC1a [2]): 70 ± 13%
